Test results: ChEMBL document CHEMBL1201862, “PubChem BioAssay data set” (2004)
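Results reflect a 48-hour exposure of cells in 96-well plates to compound at five concentrations. GI50 marks 50% less growth.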 Calls of active or inactive are those of the source. Rule as the data show it: active = GI50 up to about 1.1 µM and inactive = higher.

How the values were obtained:
Test in all cases: NCI tumour cell line growth inhibition, 48 h
SF-539 = system: SF-539
SN12C = system: SN12C
SR = system: SR
ACHN = system: ACHN
HCC 2998 = system: HCC 2998
HOP-92 = system: HOP-92
NCI-H460 = system: NCI-H460
UO-31 = system: UO-31
RXF 393 = system: RXF 393
NCI-H522 = system: NCI-H522
Malme-3M = system: Malme-3M
MOLT-4 = system: MOLT-4
SK-MEL-28 = system: SK-MEL-28
NCI-H23 = system: NCI-H23
IGROV-1 = system: IGROV-1
HOP-62 = system: HOP-62
MCF7 = system: MCF7
NCI/ADR-RES = system: NCI/ADR-RES
SK-MEL-2 = system: SK-MEL-2

Row | SMILES | GI50 (SF-539) | GI50 (SN12C) | GI50 (SR) | GI50 (ACHN) | GI50 (HCC 2998) | GI50 (HOP-92) | GI50 (NCI-H460) | GI50 (UO-31) | GI50 (RXF 393) | GI50 (NCI-H522) | GI50 (Malme-3M) | GI50 (MOLT-4) | GI50 (SK-MEL-28) | GI50 (NCI-H23) | GI50 (IGROV-1) | GI50 (HOP-62) | GI50 (MCF7) | GI50 (NCI/ADR-RES) | GI50 (SK-MEL-2)
1 | O=C(CSSCC(=O)Nc1ccc(Br)cc1)Nc1ccc(Br)cc1 | 17.6 µM (inactive) | 16.3 µM (inactive) | 10.3 µM (inactive) | 15.8 µM (inactive) | 22.1 µM (inactive) | 19 µM (inactive) | 16.9 µM (inactive) | 17.7 µM (inactive) | 18.7 µM (inactive) | 12.2 µM (inactive) | 21.8 µM (inactive) | 14.1 µM (inactive) | 18.5 µM (inactive) | 19.3 µM (inactive) | 18.2 µM (inactive) | 12.4 µM (inactive) | – | – | –
2 | COc1cc2c(c3nc4ccccc4nc13)-c1ccc(SC)c(=O)cc1[C@@H](NC(C)=O)CC2 | 0.0248 µM (active) | 0.0968 µM (active) | 0.0158 µM (active) | 1.15 µM (inactive) | 0.0935 µM (active) | 0.149 µM (active) | 0.0893 µM (active) | 6.3 µM (inactive) | > 100 µM (inactive) | 0.0327 µM (active) | 0.0106 µM (active) | 0.0438 µM (active) | > 56.4 µM (inactive) | 0.0247 µM (active) | 0.0267 µM (active) | 0.405 µM (active) | 0.0485 µM (active) | 6.9 µM (inactive) | –
3 | O=c1[nH]cc(COCC(F)(F)C(F)(F)C(F)(F)C(F)F)c(=O)[nH]1 | – | > 100 µM (inactive) | > 100 µM (inactive) | > 100 µM (inactive) | > 100 µM (inactive) | > 100 µM (inactive) | – | > 100 µM (inactive) | > 100 µM (inactive) | > 100 µM (inactive) | > 100 µM (inactive) | > 100 µM (inactive) | > 100 µM (inactive) | > 100 µM (inactive) | > 100 µM (inactive) | > 100 µM (inactive) | – | – | > 100 µM (inactive)
4 | C=C1CC(OC)(C(O)C(=O)N[C@H]2OCO[C@H]3C2O[C@H](C[C@H](O)COC)C(C)(C)C3OC)O[C@H](C)[C@@H]1C (some centres undefined) | < 0.00773 µM (active) | < 0.00773 µM (active) | – | – | < 0.00773 µM (active) | – | < 0.00773 µM (active) | < 0.00773 µM (active) | < 0.00773 µM (active) | < 0.00773 µM (active) | – | < 0.00773 µM (active) | < 0.00773 µM (active) | < 0.00773 µM (active) | < 0.00773 µM (active) | < 0.00773 µM (active) | < 0.00773 µM (active) | < 0.00773 µM (active) | –
5 | O=C(O)CCc1cccc2c1oc1c(CCC(=O)O)cccc12 | > 100 µM (inactive) | > 100 µM (inactive) | > 100 µM (inactive) | > 100 µM (inactive) | > 100 µM (inactive) | > 100 µM (inactive) | > 100 µM (inactive) | > 100 µM (inactive) | > 100 µM (inactive) | > 100 µM (inactive) | > 100 µM (inactive) | > 100 µM (inactive) | > 100 µM (inactive) | > 100 µM (inactive) | > 100 µM (inactive) | – | – | – | > 100 µM (inactive)
6 | COc1ccc(N[S+]([O-])C2CCCCC2)cc1 (centres undefined) | > 100 µM (inactive) | > 100 µM (inactive) | > 100 µM (inactive) | > 100 µM (inactive) | 59.2 µM (inactive) | – | > 100 µM (inactive) | > 100 µM (inactive) | > 100 µM (inactive) | > 100 µM (inactive) | > 100 µM (inactive) | > 100 µM (inactive) | > 100 µM (inactive) | > 100 µM (inactive) | > 100 µM (inactive) | 91.8 µM (inactive) | > 100 µM (inactive) | > 100 µM (inactive) | –
7 | C#CCCCCC#CC1CCCC1C1=CC(=O)c2ccccc21 (centres undefined) | 8.93 µM (inactive) | 6.38 µM (inactive) | 2.79 µM (inactive) | 6.9 µM (inactive) | 12.6 µM (inactive) | 4.09 µM (inactive) | 15.3 µM (inactive) | 8.17 µM (inactive) | 4.81 µM (inactive) | 7.93 µM (inactive) | 6.55 µM (inactive) | 2.25 µM (inactive) | 5.18 µM (inactive) | 10.6 µM (inactive) | 6 µM (inactive) | 7.36 µM (inactive) | – | – | 11.2 µM (inactive)
8 | CCC(COC(=O)CC[C@@H](NC(=O)C(C)NC(=O)C(C)OC1C(O)C(CO)OC(OCc2ccccc2)C1NC(C)=O)C(N)=O)NC1c2ccccc2Nc2cccc([N+](=O)[O-])c21 (some centres undefined) | > 100 µM (inactive) | > 100 µM (inactive) | > 100 µM (inactive) | > 100 µM (inactive) | > 100 µM (inactive) | > 100 µM (inactive) | 54 µM (inactive) | > 100 µM (inactive) | 37.4 µM (inactive) | > 100 µM (inactive) | > 100 µM (inactive) | > 100 µM (inactive) | > 100 µM (inactive) | > 100 µM (inactive) | > 100 µM (inactive) | > 100 µM (inactive) | – | – | > 100 µM (inactive)
9 | O=C(CNc1cccc(Cl)c1)Nn1c(-c2ccccc2)nc2ccccc2c1=O | 3.69 µM (inactive) | 4.13 µM (inactive) | 4.6 µM (inactive) | 13.6 µM (inactive) | 10.4 µM (inactive) | 2.31 µM (inactive) | 10.5 µM (inactive) | 17.2 µM (inactive) | – | 1.42 µM (inactive) | – | 1.35 µM (inactive) | 8.02 µM (inactive) | 2.4 µM (inactive) | 4.35 µM (inactive) | 14.1 µM (inactive) | 2.04 µM (inactive) | – | –
10 | O=P1(Oc2ccc(Cl)cc2Cl)Oc2cc3ccccc3cc2O1 | > 84.9 µM (inactive) | > 94.4 µM (inactive) | – | – | 20.8 µM (inactive) | 28.5 µM (inactive) | 49.9 µM (inactive) | 24.9 µM (inactive) | > 58.9 µM (inactive) | 26.5 µM (inactive) | > 100 µM (inactive) | 23.5 µM (inactive) | > 100 µM (inactive) | 43.9 µM (inactive) | 64.7 µM (inactive) | 71.8 µM (inactive) | 31.8 µM (inactive) | 84.1 µM (inactive) | 81.1 µM (inactive)
11 | CSCC[C@@H](NC(=O)[C@H](CC(C)C)NC(=O)C(Cc1cnc[nH]1)NC(=O)CNC(=O)[C@@H](NC(=O)[C@H](C)NC(=O)[C@H](Cc1c[nH]c2ccccc12)NC(=O)[C@H](CCC(N)=O)NC(=O)[C@@H](N)CC(N)=O)C(C)C)C(N)=O (some centres undefined) | > 100 µM (inactive) | > 100 µM (inactive) | – | – | > 100 µM (inactive) | > 100 µM (inactive) | > 100 µM (inactive) | > 100 µM (inactive) | > 100 µM (inactive) | > 100 µM (inactive) | > 100 µM (inactive) | > 55.7 µM (inactive) | > 100 µM (inactive) | > 100 µM (inactive) | > 100 µM (inactive) | > 100 µM (inactive) | > 100 µM (inactive) | > 100 µM (inactive) | > 100 µM (inactive)
12 | N#CC(OC1OC(COC2OC(CO)C(O)C(O)C2O)C(O)C(O)C1O)c1ccccc1 (centres undefined) | > 225 µM (inactive) | > 225 µM (inactive) | – | – | > 225 µM (inactive) | > 225 µM (inactive) | > 225 µM (inactive) | > 225 µM (inactive) | > 225 µM (inactive) | > 225 µM (inactive) | > 225 µM (inactive) | > 225 µM (inactive) | > 225 µM (inactive) | > 225 µM (inactive) | > 225 µM (inactive) | > 225 µM (inactive) | > 225 µM (inactive) | > 225 µM (inactive) | > 225 µM (inactive)
13 | Cc1cc(C)n(CCNCCn2nc(C)cc2C)n1 | > 100 µM (inactive) | > 100 µM (inactive) | > 100 µM (inactive) | > 100 µM (inactive) | > 100 µM (inactive) | > 100 µM (inactive) | > 100 µM (inactive) | > 100 µM (inactive) | > 100 µM (inactive) | > 100 µM (inactive) | – | > 100 µM (inactive) | 91 µM (inactive) | > 100 µM (inactive) | – | > 100 µM (inactive) | – | – | –
14 | CCOC(=O)C(N=C(c1ccccc1)c1ccccc1)N(C(=O)OC(C)(C)C)C(=O)OC(C)(C)C (centres undefined) | > 100 µM (inactive) | > 100 µM (inactive) | 69.3 µM (inactive) | > 100 µM (inactive) | > 100 µM (inactive) | 7.45 µM (inactive) | – | > 100 µM (inactive) | 19.8 µM (inactive) | > 100 µM (inactive) | > 100 µM (inactive) | > 100 µM (inactive) | > 100 µM (inactive) | > 100 µM (inactive) | > 100 µM (inactive) | – | – | – | > 100 µM (inactive)
15 | COC(=O)[C@H]1C=NN[C@@H]1C(=O)N1[C@H]2CC3CC[C@@]2(CS1(=O)=O)C3(C)C | > 100 µM (inactive) | > 100 µM (inactive) | > 100 µM (inactive) | > 100 µM (inactive) | > 100 µM (inactive) | > 100 µM (inactive) | > 100 µM (inactive) | > 100 µM (inactive) | – | > 100 µM (inactive) | > 100 µM (inactive) | > 100 µM (inactive) | > 100 µM (inactive) | > 100 µM (inactive) | > 100 µM (inactive) | > 100 µM (inactive) | > 100 µM (inactive) | > 100 µM (inactive) | > 100 µM (inactive)
16 | O=C1CSC(Cc2nc3ccccc3[nH]2)=N1 | 20.7 µM (inactive) | 18.1 µM (inactive) | 5.83 µM (inactive) | 5.41 µM (inactive) | 18.3 µM (inactive) | 29.9 µM (inactive) | – | 20.6 µM (inactive) | 18.7 µM (inactive) | 17.7 µM (inactive) | 10.6 µM (inactive) | 9.98 µM (inactive) | 16 µM (inactive) | 18.6 µM (inactive) | 26.6 µM (inactive) | 22.3 µM (inactive) | – | – | 16.3 µM (inactive)
